Legend:
S. aureus DSM 20231 [1] = assay: Bliss interaction score (quartile over a dose matrix) (fitness difference); higher = more antagonism (negative = synergy)
In short: (§1)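 At entry into stationary phase, OD595 was recorded and divided by the robust mean of the no-drug wells on that plate, with any value above 1 set to 1. This gives the fitness measure used throughout. Single-drug fitness was inferred from combination data, and the Bliss score, observed minus product-expected fitness, is shown as quartiles across technical, biological and donor/recipient replicates.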

B. subtilis 168 [2] = assay: as above
In short: as §1

S. aureus Newman [3] = assay: as above
In short: as §1

S. pneumoniae D39V [4] = assay: as above
In short: as §1

S. aureus DSM 20231 [5] = assay: fitness (endpoint OD595 vs no drug) (fraction); higher = more growth
In short: (§2)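 At 37 °C, bacteria in TSB, LB Lennox or CY were grown in 384-well plates from a starting OD595 of 0.01. OD595 was measured every 30 min for 14 h, with the first reading used as background. Fitness is the optical density at the switch to stationary phase as a fraction of the robust mean of no-drug control wells, capped at 1.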

B. subtilis 168 [6] = assay: as above
In short: as §2

S. aureus Newman [7] = assay: as above
In short: as §2

S. pneumoniae D39V [8] = assay: as above
In short: as §2
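For Bliss interaction score (quartile over a dose matrix) in this document: first quartile when negative (synergy) and third quartile when positive (antagonism).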

CO/N=C(\C(=O)N[C@@H]1C(=O)N2C(C(=O)O)=C(COC(C)=O)CS[C@H]12)c1csc(N)n1 [Cefotaxime] + O=C(O[C@@H]1Cc2c(O)cc(O)cc2O[C@@H]1c1cc(O)c(O)c(O)c1)c1cc(O)c(O)c(O)c1 [EGCG]
Conditions | Bliss interaction score
B. subtilis 168 [2] | 0.112
S. aureus DSM 20231 [1] | 0.0466
S. aureus Newman [3] | 0.0329
S. pneumoniae D39V [4] | 0.07

fitness
Conditions | partner 6.25 µg/mL | partner 12.5 µg/mL | partner 25 µg/mL | partner 50 µg/mL
B. subtilis 168 [6], first compound 0.5 µg/mL | 0.265 | 0.293 | 0.103 | –
B. subtilis 168 [6], first compound 1 µg/mL | 0.119 | 0.166 | 0.0631 | –
B. subtilis 168 [6], first compound 2 µg/mL | 0.0879 | 0.142 | 0.0481 | –
S. aureus DSM 20231 [5], first compound 0.039 µg/mL | – | 0.696 | 0.702 | 0.651
S. aureus DSM 20231 [5], first compound 0.078 µg/mL | – | 0.655 | 0.704 | 0.625
S. aureus DSM 20231 [5], first compound 0.156 µg/mL | – | 0.685 | 0.697 | 0.746
S. aureus DSM 20231 [5], first compound 0.312 µg/mL | – | 0.736 | 0.622 | –
S. aureus Newman [7], first compound 0.078 µg/mL | – | 0.594 | 0.615 | 0.573
S. aureus Newman [7], first compound 0.156 µg/mL | – | 0.574 | 0.391 | 0.564
S. aureus Newman [7], first compound 0.625 µg/mL | – | 0.198 | 0.071 | 0.0397
S. aureus Newman [7], first compound 1.25 µg/mL | – | 0.0285 | 0.0144 | 0.0286
S. aureus Newman [7], first compound 2.5 µg/mL | – | 0.0123 | 0.0423 | 0.0268
S. pneumoniae D39V [8], first compound 0.0018 µg/mL | – | 0.977 | 0.978 | 0.939
S. pneumoniae D39V [8], first compound 0.0035 µg/mL | – | 0.989 | ≥ 1 | 0.955
S. pneumoniae D39V [8], first compound 0.007 µg/mL | – | 0.889 | 0.914 | 0.883

fitness, one replicate
Conditions | first compound 0.00775 µg/mL | first compound 0.0155 µg/mL | first compound 0.031 µg/mL | first compound 0.039 µg/mL | first compound 0.0625 µg/mL | first compound 0.125 µg/mL | first compound 0.25 µg/mL | first compound 0.312 µg/mL
B. subtilis 168 [6], partner 6.25 µg/mL | 0.847 | 0.723 | 0.588 | – | 0.532 | 0.462 | 0.403 | –
B. subtilis 168 [6], partner 12.5 µg/mL | 0.466 | 0.341 | 0.284 | – | 0.59 | 0.521 | 0.475 | –
B. subtilis 168 [6], partner 25 µg/mL | 0.192 | 0.129 | 0.133 | – | 0.547 | 0.484 | 0.32 | –
S. aureus Newman [7], partner 12.5 µg/mL | – | – | – | 0.751 | – | – | – | 0.317
S. aureus Newman [7], partner 25 µg/mL | – | – | – | 0.786 | – | – | – | 0.268
S. aureus Newman [7], partner 50 µg/mL | – | – | – | 0.726 | – | – | – | 0.14

Cc1ncc([N+](=O)[O-])n1CCO [Metronidazole] + CN(N=O)C(=O)N[C@@H](C=O)[C@@H](O)[C@H](O)[C@H](O)CO [Streptozotocin]
Conditions | Bliss interaction score
B. subtilis 168 [2] | -0.0488
S. aureus DSM 20231 [1] | -0.0474
S. aureus Newman [3] | 0.0626
S. pneumoniae D39V [4] | 0.0474

fitness
Conditions | first compound 0.625 µg/mL | first compound 1.073 µg/mL | first compound 1.25 µg/mL | first compound 2.145 µg/mL | first compound 2.5 µg/mL | first compound 4.29 µg/mL
S. aureus DSM 20231 [5], partner 0.15 µg/mL | 0.876 | – | 0.888 | – | 0.905 | –
S. aureus DSM 20231 [5], partner 0.3 µg/mL | 0.791 | – | 0.752 | – | 0.831 | –
S. aureus DSM 20231 [5], partner 0.6 µg/mL | 0.683 | – | 0.701 | – | 0.734 | –
S. aureus Newman [7], partner 0.15 µg/mL | 0.838 | – | 0.833 | – | 0.816 | –
S. aureus Newman [7], partner 0.3 µg/mL | 0.725 | – | 0.742 | – | 0.731 | –
S. aureus Newman [7], partner 0.6 µg/mL | 0.579 | – | 0.568 | – | 0.591 | –
S. pneumoniae D39V [8], partner 1.2 µg/mL | – | 0.942 | – | 0.934 | – | 0.96
S. pneumoniae D39V [8], partner 2.4 µg/mL | – | 0.961 | – | 0.904 | – | 0.743
S. pneumoniae D39V [8], partner 4.8 µg/mL | – | 0.966 | – | 0.946 | – | 0.979

fitness, one replicate
Conditions | partner 0.15 µg/mL | partner 0.3 µg/mL | partner 0.6 µg/mL | partner 1.2 µg/mL | partner 2.4 µg/mL | partner 4.8 µg/mL
B. subtilis 168 [6], first compound 0.625 µg/mL | ≥ 1 | ≥ 1 | ≥ 1 | – | – | –
B. subtilis 168 [6], first compound 1.25 µg/mL | 0.91 | ≥ 1 | ≥ 1 | – | – | –
B. subtilis 168 [6], first compound 2.5 µg/mL | 0.956 | 0.941 | 0.976 | – | – | –
S. aureus Newman [7], first compound 0.781 µg/mL | 0.907 | 0.717 | 0.523 | – | – | –
S. aureus Newman [7], first compound 1.562 µg/mL | 0.875 | 0.722 | 0.519 | – | – | –
S. aureus Newman [7], first compound 3.124 µg/mL | 0.796 | 0.709 | 0.505 | – | – | –
S. pneumoniae D39V [8], first compound 1.25 µg/mL | – | – | – | ≥ 1 | ≥ 1 | ≥ 1
S. pneumoniae D39V [8], first compound 2.5 µg/mL | – | – | – | 0.98 | ≥ 1 | ≥ 1
S. pneumoniae D39V [8], first compound 5 µg/mL | – | – | – | 0.959 | ≥ 1 | ≥ 1

CO/N=C(\C(=O)N[C@@H]1C(=O)N2C(C(=O)O)=C(COC(C)=O)CS[C@H]12)c1csc(N)n1 [Cefotaxime] + COc1cccc2c1C(=O)c1c(O)c3c(c(O)c1C2=O)C[C@@](O)(C(=O)CO)C[C@@H]3O[C@H]1C[C@H](N)[C@H](O)[C@H](C)O1 [Doxorubicin]
Conditions | Bliss interaction score
B. subtilis 168 [2] | -0.17
S. aureus DSM 20231 [1] | -0.086
S. aureus Newman [3] | 0.0946
S. pneumoniae D39V [4] | 0.0436

Conditions | fitness
B. subtilis 168 [6], first compound 0.5 µg/mL, partner 0.625 µg/mL | 0.183
B. subtilis 168 [6], first compound 0.5 µg/mL, partner 1.25 µg/mL | 0.16
B. subtilis 168 [6], first compound 0.5 µg/mL, partner 2.5 µg/mL | 0.0662
B. subtilis 168 [6], first compound 1 µg/mL, partner 0.625 µg/mL | 0.106
B. subtilis 168 [6], first compound 1 µg/mL, partner 1.25 µg/mL | 0.0654
B. subtilis 168 [6], first compound 1 µg/mL, partner 2.5 µg/mL | 0.0366
B. subtilis 168 [6], first compound 2 µg/mL, partner 0.625 µg/mL | 0.0861
B. subtilis 168 [6], first compound 2 µg/mL, partner 1.25 µg/mL | 0.0715
B. subtilis 168 [6], first compound 2 µg/mL, partner 2.5 µg/mL | 0.0755
S. aureus DSM 20231 [5], first compound 0.039 µg/mL, partner 0.625 µg/mL | 0.717
S. aureus DSM 20231 [5], first compound 0.039 µg/mL, partner 1.25 µg/mL | 0.707
S. aureus DSM 20231 [5], first compound 0.039 µg/mL, partner 2.5 µg/mL | 0.633
S. aureus DSM 20231 [5], first compound 0.078 µg/mL, partner 0.625 µg/mL | 0.67
S. aureus DSM 20231 [5], first compound 0.078 µg/mL, partner 1.25 µg/mL | 0.67
S. aureus DSM 20231 [5], first compound 0.078 µg/mL, partner 2.5 µg/mL | 0.589
S. aureus DSM 20231 [5], first compound 0.156 µg/mL, partner 0.625 µg/mL | 0.602
S. aureus DSM 20231 [5], first compound 0.156 µg/mL, partner 1.25 µg/mL | 0.613
S. aureus DSM 20231 [5], first compound 0.156 µg/mL, partner 2.5 µg/mL | 0.583
S. aureus DSM 20231 [5], first compound 0.312 µg/mL, partner 0.625 µg/mL | 0.537
S. aureus DSM 20231 [5], first compound 0.312 µg/mL, partner 1.25 µg/mL | 0.61
S. aureus DSM 20231 [5], first compound 0.312 µg/mL, partner 2.5 µg/mL | 0.572
S. aureus Newman [7], first compound 0.078 µg/mL, partner 0.625 µg/mL | 0.613
S. aureus Newman [7], first compound 0.078 µg/mL, partner 1.25 µg/mL | 0.68
S. aureus Newman [7], first compound 0.078 µg/mL, partner 2.5 µg/mL | 0.663
S. aureus Newman [7], first compound 0.156 µg/mL, partner 0.625 µg/mL | 0.563
S. aureus Newman [7], first compound 0.156 µg/mL, partner 1.25 µg/mL | 0.592
S. aureus Newman [7], first compound 0.156 µg/mL, partner 2.5 µg/mL | 0.618
S. aureus Newman [7], first compound 0.312 µg/mL, partner 0.625 µg/mL | 0.458
S. aureus Newman [7], first compound 0.312 µg/mL, partner 1.25 µg/mL | 0.45
S. aureus Newman [7], first compound 0.312 µg/mL, partner 2.5 µg/mL | 0.408
S. pneumoniae D39V [8], first compound 0.0018 µg/mL, partner 0.25 µg/mL | 0.944
S. pneumoniae D39V [8], first compound 0.0018 µg/mL, partner 0.5 µg/mL | 0.963
S. pneumoniae D39V [8], first compound 0.0018 µg/mL, partner 1 µg/mL | 0.863
S. pneumoniae D39V [8], first compound 0.0035 µg/mL, partner 0.25 µg/mL | 0.929
S. pneumoniae D39V [8], first compound 0.0035 µg/mL, partner 0.5 µg/mL | 0.944
S. pneumoniae D39V [8], first compound 0.0035 µg/mL, partner 1 µg/mL | 0.831
S. pneumoniae D39V [8], first compound 0.007 µg/mL, partner 1 µg/mL | 0.731

fitness, one replicate
Conditions | first compound 0.00775 µg/mL | first compound 0.0155 µg/mL | first compound 0.031 µg/mL | first compound 0.0625 µg/mL | first compound 0.125 µg/mL | first compound 0.25 µg/mL | first compound 0.625 µg/mL | first compound 1.25 µg/mL | first compound 2.5 µg/mL
B. subtilis 168 [6], partner 0.625 µg/mL | 0.844 | 0.659 | 0.476 | 0.382 | 0.227 | 0.187 | – | – | –
B. subtilis 168 [6], partner 1.25 µg/mL | 0.771 | 0.571 | 0.371 | 0.337 | 0.232 | 0.196 | – | – | –
B. subtilis 168 [6], partner 2.5 µg/mL | 0.35 | 0.0312 | 0.0055 | 0.0527 | 0.048 | 0.0308 | – | – | –
S. aureus Newman [7], partner 0.625 µg/mL | – | – | – | – | – | – | 0.0853 | 0.0304 | 0.0624
S. aureus Newman [7], partner 1.25 µg/mL | – | – | – | – | – | – | 0.0701 | 0.0126 | 0.0183
S. aureus Newman [7], partner 2.5 µg/mL | – | – | – | – | – | – | 0.0451 | 0 | 0.0123
